Where a SMILES comes first, the peptide text is derived from it. Bridges are numbered along the chain shown (N, C = ends). [ ]: non-standard residue; d: D form. The star is where a group is joined. hPhe(3-Cl-4-CF3) = N[C@@H](CCc1ccc(C(F)(F)F)c(Cl)c1)C(=O)O; NPrPhe(4-CF3) = CCCN[C@@H](Cc1ccc(C(F)(F)F)cc1)C(=O)O; NMeGly(cPent) = CN[C@H](C(=O)O)C1CCCC1; NMeD = CN[C@@H](CC(=O)O)C(=O)O; NMeL = CN[C@@H](CC(C)C)C(=O)O; NMeNva = CCC[C@H](NC)C(=O)O; Morpholide = C1CN(*)CCO1; NMeA = CN[C@@H](C)C(=O)O; Ac5c = NC1(C(=O)O)CCCC1; Aze = O=C(O)[C@@H]1CCN1; Sar = CNCC(=O)O
Experiments:
[1] = target: GDP-bound NRAS wild-type protein (Homo sapiens, UniProt P01111); assay: Binding to NRAS by surface plasmon resonance (SPR), Single Cycle Kinetics; conditions: SPR
[2] = target: GDP-bound HRAS wild-type protein (Homo sapiens, UniProt P01112); assay: Binding to HRAS by surface plasmon resonance (SPR), Single Cycle Kinetics; conditions: SPR
Sequence of GDP-bound HRAS wild-type protein (P01112 whole entry): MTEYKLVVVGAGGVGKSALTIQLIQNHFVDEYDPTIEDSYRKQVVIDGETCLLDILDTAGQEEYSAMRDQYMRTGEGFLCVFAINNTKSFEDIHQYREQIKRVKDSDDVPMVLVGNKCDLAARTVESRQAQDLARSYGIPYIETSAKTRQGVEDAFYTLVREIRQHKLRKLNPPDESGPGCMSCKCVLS

Sequence of GDP-bound NRAS wild-type protein (P01111 whole entry): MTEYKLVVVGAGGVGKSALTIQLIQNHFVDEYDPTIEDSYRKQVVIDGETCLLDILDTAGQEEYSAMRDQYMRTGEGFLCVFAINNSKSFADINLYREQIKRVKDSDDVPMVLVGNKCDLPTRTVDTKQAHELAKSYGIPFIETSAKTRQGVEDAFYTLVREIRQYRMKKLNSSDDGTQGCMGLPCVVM

| SMILES | NRAS/KRAS (ratio of KD for GDP-bound NRAS wild-type to KD for KRAS) [1] | HRAS/KRAS (ratio of KD for GDP-bound HRAS wild-type to KD for KRAS) [2] | NRAS/KRAS (ratio of KD value with respect to GDP-bound NRAS wild-type protein to KD value with respect to KRAS) [1] | HRAS/KRAS (ratio of KD value with respect to GDP-bound HRAS wild-type protein to KD value with respect to KRAS) [2] | further results |
| --- | --- | --- | --- | --- | --- |
| CCCN1C(=O)CN(C)C(=O)CN(C)C(=O)[C@H]([C@@H](C)CC)NC(=O)[C@H](CC(C)C)N(C)C(=O)C[C@@H](C(=O)N(C)C)N(C)C(=O)[C@H](C2CCCC2)N(C)C(=O)C2(CCCC2)NC(=O)[C@@H]2CCCN2C(=O)[C@H](CCc2ccc(C(F)(F)F)c(Cl)c2)NC(=O)CN(C)C(=O)[C@@H]1Cc1ccc(C(F)(F)F)cc1 [PP0169] ([NMeL]I[Sar][Sar][NPrPhe(4-CF3)][Sar][hPhe(3-Cl-4-CF3)]P[Ac5c][NMeGly(cPent)][NMeD]-NMe2; lactam N-11) | B (a compound having 3 or more and less than 10 is denoted as B) | B (a compound having 3 or more and less than 10 is denoted as B) |  |  |  |
| CCC[C@H]1C(=O)N[C@@H]([C@@H](C)CC)C(=O)N(C)CC(=O)N(C)CC(=O)N(CCC)[C@@H](Cc2ccc(C(F)(F)F)cc2)C(=O)N(C)CC(=O)N[C@@H](CCc2ccc(C(F)(F)F)c(Cl)c2)C(=O)N2CCC[C@H]2C(=O)NC2(CCCC2)C(=O)N(C)[C@@H](C2CCCC2)C(=O)N(C)[C@H](C(=O)N2CCOCC2)CC(=O)N1C [PP0189] ([NMeNva]I[Sar][Sar][NPrPhe(4-CF3)][Sar][hPhe(3-Cl-4-CF3)]P[Ac5c][NMeGly(cPent)][NMeD]-Morpholide; lactam N-11) | B (a compound having 3 or more and less than 10 is denoted as B) | C (A compound having a KD ratio of 0.1 or more and less than 3 is denoted as C) |  |  |  |
| CC[C@H](C)[C@@H]1NC(=O)[C@H](CC(C)C)N(C)C(=O)C[C@@H](C(=O)N2CCOCC2)N(C)C(=O)[C@H](C2CCC2)N(C)C(=O)C2(CCCC2)NC(=O)[C@@H]2CCCN2C(=O)[C@H](CCc2cc(F)c(C(F)(F)F)c(F)c2)NC(=O)CN(C)C(=O)[C@H](Cc2ccc(C(F)(F)F)cc2)N2CCCCC[C@@H](C2=O)N(C)C(=O)CN(C)C1=O [PP0504] |  |  | B (a compound having 3 or more and less than 10 is denoted as B) | B (a compound having 3 or more and less than 10 is denoted as B) |  |
| CC[C@H](C)[C@@H]1NC(=O)[C@H](CC(C)C)N(C)C(=O)C[C@@H](C(=O)N2CCOCC2)N(C)C(=O)[C@H](C2CCCC2)N(C)C(=O)C2(CCC2)NC(=O)[C@@H]2CCCN2C(=O)[C@H](CCc2cc(F)c(C(F)(F)F)c(F)c2)NC(=O)CN(C)C(=O)[C@H](Cc2ccc(C(F)(F)F)cc2)N2CCCCC[C@@H](C2=O)N(C)C(=O)CN(C)C1=O [PP0497] |  |  | B (a compound having 3 or more and less than 10 is denoted as B) | B (a compound having 3 or more and less than 10 is denoted as B) |  |
| CCC[C@H]1C(=O)N[C@@H]([C@@H](C)CC)C(=O)N(C)[C@@H](C)C(=O)N2CC[C@H]2C(=O)N(CCC)[C@@H](Cc2ccc(C(F)(F)F)cc2)C(=O)N(C)CC(=O)N[C@@H](CCc2ccc(C(F)(F)F)c(Cl)c2)C(=O)N2CCC[C@H]2C(=O)NC2(CCCC2)C(=O)N(C)[C@@H](C2CCCC2)C(=O)N(C)[C@H](C(=O)N2CCOCC2)CC(=O)N1C [PP0193] ([NMeNva]I[NMeA][Aze][NPrPhe(4-CF3)][Sar][hPhe(3-Cl-4-CF3)]P[Ac5c][NMeGly(cPent)][NMeD]-Morpholide; lactam N-11) | C (A compound having a KD ratio of 0.1 or more and less than 3 is denoted as C) | C (A compound having a KD ratio of 0.1 or more and less than 3 is denoted as C) |  |  |  |
| CCO[C@@H]1C[C@H]2C(=O)N(C)C3(CCC3)C(=O)N(C)[C@@H](C3CCCC3)C(=O)N(C)[C@H](C(=O)N(C)C)CC(=O)N(C)[C@@H](CC3CC3)C(=O)N[C@@H]([C@@H](C)CC)C(=O)N3CCC[C@H]3C(=O)N(C)[C@H]3C/C=C\CCN(C3=O)[C@@H](Cc3ccc(C)cc3)C(=O)N(C)CC(=O)N[C@@H](CCc3cc(F)c(C(F)(F)F)c(F)c3)C(=O)N2C1 [PP1797] |  |  |  |  | NRAS/KRAS (ratio of KD value for NRAS to KD value for KRAS) ([1]; KD ratio, GDP-bound NRAS wild-type vs GDP-bound KRAS wild-type): A (a compound having 10 or more and less than 20 is denoted as A); HRAS/KRAS (ratio of KD value for HRAS to KD value for KRAS) ([2]; KD ratio, GDP-bound HRAS wild-type vs GDP-bound KRAS wild-type): A (a compound having 10 or more and less than 20 is denoted as A) |
| CCOC[C@H]1C(=O)N[C@@H]([C@@H](C)CC)C(=O)N(C)CC(=O)N(C)[C@H]2C/C=C\CCN(C2=O)[C@@H](CC2CCC(F)(F)CC2)C(=O)N(C)CC(=O)N[C@@H](CCc2ccc(C(F)(F)F)c(OC)c2)C(=O)N2C[C@H](OCC)C[C@H]2C(=O)NC2(CC(C)(C)C2)C(=O)N(C)[C@@H](C(CC)CC)C(=O)N(C)[C@H](C(=O)N(C)C)CC(=O)N1C [PP2446] |  |  |  |  | NRAS/KRAS (ratio of KD value with respect to NRAS to KD value with respect to KRAS) ([1]; GDP-bound NRAS wild-type vs GDP-bound KRAS wild-type): A (a compound having 10 or more and less than 20 is denoted as A); HRAS/KRAS (ratio of KD value with respect to HRAS to KD value with respect to KRAS) ([2]; GDP-bound HRAS wild-type vs GDP-bound KRAS wild-type): A (a compound having 10 or more and less than 20 is denoted as A) |
| CCO[C@@H]1C[C@H]2C(=O)NC3(CCC3)C(=O)N(C)[C@@H](C3CCCC3)C(=O)N(C)[C@H](C(=O)N3CCOCC3)CC(=O)N(C)[C@@H](C)C(=O)N[C@@H]([C@@H](C)CC)C(=O)N(C)CC(=O)N(C)[C@H]3CCCCCN(C3=O)[C@@H](Cc3ccc(C(F)(F)F)cc3)C(=O)N(C)CC(=O)N[C@@H](CCc3cc(F)c(C(F)(F)F)c(F)c3)C(=O)N2C1 [PP0474] |  |  | B (a compound having 3 or more and less than 10 is denoted as B) | B (a compound having 3 or more and less than 10 is denoted as B) |  |

From patent US20250230193A1, “CYCLIC COMPOUND HAVING SELECTIVE KRAS INHIBITORY EFFECT ON HRAS AND NRAS” (CHUGAI SEIYAKU KABUSHIKI KAISHA, priority 2022, published 2025)
